Measured values as given in ChEMBL document CHEMBL5653631, “A Potent and Selective ULK1 Inhibitor Suppresses Autophagy and Sensitizes Cancer Cells to Nutrient Stress” (iScience, 2018).
One block for each molecule: values may come before it.

Experiments:
[1] = molecular target: Receptor tyrosine-protein kinase erbB-2 (Homo sapiens) (UniProt P04626); experiment: Inhibition of human recombinant ErbB2 at 500 nM in presence of ATP by radiometric assay relative to control
[2] = molecular target: Casein kinase I isoform gamma-2 (Homo sapiens) (UniProt P78368); experiment: Inhibition of human recombinant CK1g2 at 500 nM related to control ULK1
[3] = molecular target: Rhodopsin kinase GRK7 (Homo sapiens) (UniProt Q8WTQ7); experiment: Inhibition of human recombinant GPRK7 at 500 nM in presence of ATP by radiometric assay relative to control
[4] = molecular target: T1, Mitogen-activated protein kinase kinase kinase 7 (Homo sapiens) (UniProt O43318); experiment: Inhibition of human recombinant TAK1 at 15 nM in presence of ATP by radiometric assay relative to control
T1 sequence (whole entry): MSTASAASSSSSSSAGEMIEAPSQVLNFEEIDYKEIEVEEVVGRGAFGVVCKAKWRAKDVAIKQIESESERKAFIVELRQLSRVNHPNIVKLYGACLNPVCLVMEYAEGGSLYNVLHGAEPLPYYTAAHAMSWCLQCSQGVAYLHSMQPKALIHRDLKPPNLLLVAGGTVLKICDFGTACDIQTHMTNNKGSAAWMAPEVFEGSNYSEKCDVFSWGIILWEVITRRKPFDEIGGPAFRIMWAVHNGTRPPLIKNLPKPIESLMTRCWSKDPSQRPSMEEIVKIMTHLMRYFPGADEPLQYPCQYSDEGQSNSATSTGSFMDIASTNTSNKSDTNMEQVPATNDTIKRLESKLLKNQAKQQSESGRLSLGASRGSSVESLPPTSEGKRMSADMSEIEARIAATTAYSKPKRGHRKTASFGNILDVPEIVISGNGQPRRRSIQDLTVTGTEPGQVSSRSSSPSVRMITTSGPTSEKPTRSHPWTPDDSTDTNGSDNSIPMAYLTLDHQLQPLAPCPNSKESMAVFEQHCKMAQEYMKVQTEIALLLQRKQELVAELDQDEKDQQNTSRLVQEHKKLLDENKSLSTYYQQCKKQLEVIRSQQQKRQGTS

[5] = molecular target: Fibroblast growth factor receptor 2 (Homo sapiens) (UniProt P21802); experiment: Inhibition of human recombinant FGFR2 at 15 nM related to control ULK1
[6] = molecular target: RAF proto-oncogene serine/threonine-protein kinase (Homo sapiens) (UniProt P04049); experiment: Inhibition of human recombinant RAF1 at 15 nM related to control ULK1
[7] = molecular target: Serine/threonine-protein kinase Chk2 (Homo sapiens) (UniProt O96017); experiment: Inhibition of human recombinant CHK2 at 40 nM in presence of ATP by radiometric assay relative to control
[8] = molecular target: Casein kinase I isoform gamma-1 (Homo sapiens) (UniProt Q9HCP0); experiment: Inhibition of human recombinant CK1g1 at 40 nM in presence of ATP by radiometric assay relative to control
[9] = molecular target: Epidermal growth factor receptor (Homo sapiens) (UniProt P00533); experiment: Inhibition of human recombinant EGFR at 40 nM related to control ULK1
[10] = molecular target: T2, Mitogen-activated protein kinase kinase kinase kinase 2 (Homo sapiens) (UniProt Q12851); experiment: Inhibition of human recombinant GCK at 40 nM related to control ULK1
T2 sequence (whole entry): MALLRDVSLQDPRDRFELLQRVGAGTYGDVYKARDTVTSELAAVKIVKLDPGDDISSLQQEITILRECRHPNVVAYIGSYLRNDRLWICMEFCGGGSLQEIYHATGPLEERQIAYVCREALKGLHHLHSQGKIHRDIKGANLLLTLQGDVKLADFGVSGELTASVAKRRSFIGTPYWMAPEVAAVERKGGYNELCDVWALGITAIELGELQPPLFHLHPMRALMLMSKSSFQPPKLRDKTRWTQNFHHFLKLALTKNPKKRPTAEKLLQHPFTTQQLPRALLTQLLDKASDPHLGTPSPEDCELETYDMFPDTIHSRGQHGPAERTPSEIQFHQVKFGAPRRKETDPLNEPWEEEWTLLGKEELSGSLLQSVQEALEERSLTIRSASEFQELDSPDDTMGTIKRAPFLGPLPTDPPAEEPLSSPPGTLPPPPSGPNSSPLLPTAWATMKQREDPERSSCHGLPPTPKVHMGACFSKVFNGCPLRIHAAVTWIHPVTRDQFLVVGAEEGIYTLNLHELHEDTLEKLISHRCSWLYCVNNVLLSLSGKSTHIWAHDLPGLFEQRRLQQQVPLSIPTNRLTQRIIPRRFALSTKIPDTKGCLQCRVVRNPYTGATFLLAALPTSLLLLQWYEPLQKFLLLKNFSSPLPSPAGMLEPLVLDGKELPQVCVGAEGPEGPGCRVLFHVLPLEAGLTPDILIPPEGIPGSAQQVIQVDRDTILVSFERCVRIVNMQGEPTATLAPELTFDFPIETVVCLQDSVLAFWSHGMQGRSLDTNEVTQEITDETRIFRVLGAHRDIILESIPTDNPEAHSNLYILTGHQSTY

[11] = molecular target: Protein kinase C eta type (Homo sapiens) (UniProt P24723); experiment: Inhibition of human recombinant PKCH at 40 nM related to control ULK1
[12] = molecular target: T3, Testis-specific serine/threonine-protein kinase 4 (Homo sapiens) (UniProt Q6SA08); experiment: Inhibition of human recombinant TSSK4 at 40 nM related to control ULK1
T3 sequence (whole entry): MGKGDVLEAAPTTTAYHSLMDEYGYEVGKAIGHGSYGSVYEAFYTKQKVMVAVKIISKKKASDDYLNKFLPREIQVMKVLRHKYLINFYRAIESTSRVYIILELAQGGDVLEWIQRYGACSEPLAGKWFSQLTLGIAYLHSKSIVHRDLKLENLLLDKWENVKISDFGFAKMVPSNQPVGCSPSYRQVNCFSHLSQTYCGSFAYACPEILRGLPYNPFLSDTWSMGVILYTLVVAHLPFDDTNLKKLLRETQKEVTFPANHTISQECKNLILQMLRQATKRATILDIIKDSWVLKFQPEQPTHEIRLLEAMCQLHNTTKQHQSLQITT

Fibroblast growth factor receptor 2 (Homo sapiens), sequence (P21802 22-821 limits assumed): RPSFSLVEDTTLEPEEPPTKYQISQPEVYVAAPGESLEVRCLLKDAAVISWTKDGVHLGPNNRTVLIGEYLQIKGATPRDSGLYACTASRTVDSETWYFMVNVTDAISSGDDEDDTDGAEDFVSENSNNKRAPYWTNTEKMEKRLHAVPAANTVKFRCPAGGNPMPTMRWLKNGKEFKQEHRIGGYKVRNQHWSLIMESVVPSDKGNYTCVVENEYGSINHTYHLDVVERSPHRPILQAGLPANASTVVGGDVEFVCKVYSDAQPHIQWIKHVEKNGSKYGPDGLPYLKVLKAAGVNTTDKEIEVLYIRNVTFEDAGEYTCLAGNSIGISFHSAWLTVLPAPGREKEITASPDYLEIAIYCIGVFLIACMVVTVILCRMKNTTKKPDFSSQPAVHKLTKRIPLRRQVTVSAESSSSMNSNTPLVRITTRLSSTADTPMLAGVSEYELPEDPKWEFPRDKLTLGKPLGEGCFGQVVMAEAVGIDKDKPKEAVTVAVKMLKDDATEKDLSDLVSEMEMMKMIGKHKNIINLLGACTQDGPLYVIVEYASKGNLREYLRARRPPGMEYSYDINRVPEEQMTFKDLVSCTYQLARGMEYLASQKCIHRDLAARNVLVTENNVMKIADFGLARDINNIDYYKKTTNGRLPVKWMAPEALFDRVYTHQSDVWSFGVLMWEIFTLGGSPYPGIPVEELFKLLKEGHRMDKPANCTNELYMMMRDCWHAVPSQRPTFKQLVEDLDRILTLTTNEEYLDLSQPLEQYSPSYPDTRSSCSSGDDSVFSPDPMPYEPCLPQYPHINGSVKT
Epidermal growth factor receptor (Homo sapiens), sequence (P00533 whole entry): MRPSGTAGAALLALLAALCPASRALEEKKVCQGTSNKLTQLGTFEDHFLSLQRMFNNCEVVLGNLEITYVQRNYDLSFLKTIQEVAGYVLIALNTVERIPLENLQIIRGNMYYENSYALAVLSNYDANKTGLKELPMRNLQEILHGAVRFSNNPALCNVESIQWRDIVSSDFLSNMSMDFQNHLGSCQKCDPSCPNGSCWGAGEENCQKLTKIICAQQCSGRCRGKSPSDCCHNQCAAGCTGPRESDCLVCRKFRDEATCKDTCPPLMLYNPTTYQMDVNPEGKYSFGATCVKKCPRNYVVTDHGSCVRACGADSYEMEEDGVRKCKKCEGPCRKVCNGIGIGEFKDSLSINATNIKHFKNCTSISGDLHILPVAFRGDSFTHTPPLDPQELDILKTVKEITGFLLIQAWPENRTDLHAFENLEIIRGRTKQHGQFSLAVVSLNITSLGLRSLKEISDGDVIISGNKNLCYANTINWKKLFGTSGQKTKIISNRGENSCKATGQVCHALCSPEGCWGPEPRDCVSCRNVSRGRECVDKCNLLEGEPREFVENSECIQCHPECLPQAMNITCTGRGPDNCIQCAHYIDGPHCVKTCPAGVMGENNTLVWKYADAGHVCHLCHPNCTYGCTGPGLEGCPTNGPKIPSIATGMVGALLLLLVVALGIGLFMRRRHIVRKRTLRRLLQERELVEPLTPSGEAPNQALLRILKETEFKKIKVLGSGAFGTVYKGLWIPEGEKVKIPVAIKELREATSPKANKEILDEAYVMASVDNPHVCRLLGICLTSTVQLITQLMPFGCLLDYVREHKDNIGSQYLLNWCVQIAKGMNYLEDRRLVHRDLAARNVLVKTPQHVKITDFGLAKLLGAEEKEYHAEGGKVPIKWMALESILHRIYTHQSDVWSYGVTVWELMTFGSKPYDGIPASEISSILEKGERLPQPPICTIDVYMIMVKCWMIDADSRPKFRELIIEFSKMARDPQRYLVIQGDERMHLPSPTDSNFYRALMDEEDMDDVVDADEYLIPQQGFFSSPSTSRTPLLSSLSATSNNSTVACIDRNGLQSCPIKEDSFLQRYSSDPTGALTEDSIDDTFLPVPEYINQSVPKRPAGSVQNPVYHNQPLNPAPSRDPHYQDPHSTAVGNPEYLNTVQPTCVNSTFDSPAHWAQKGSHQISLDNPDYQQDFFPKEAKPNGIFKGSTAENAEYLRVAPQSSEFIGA
Casein kinase I isoform gamma-2 (Homo sapiens), sequence (P78368 whole entry, looked up, canonical isoform): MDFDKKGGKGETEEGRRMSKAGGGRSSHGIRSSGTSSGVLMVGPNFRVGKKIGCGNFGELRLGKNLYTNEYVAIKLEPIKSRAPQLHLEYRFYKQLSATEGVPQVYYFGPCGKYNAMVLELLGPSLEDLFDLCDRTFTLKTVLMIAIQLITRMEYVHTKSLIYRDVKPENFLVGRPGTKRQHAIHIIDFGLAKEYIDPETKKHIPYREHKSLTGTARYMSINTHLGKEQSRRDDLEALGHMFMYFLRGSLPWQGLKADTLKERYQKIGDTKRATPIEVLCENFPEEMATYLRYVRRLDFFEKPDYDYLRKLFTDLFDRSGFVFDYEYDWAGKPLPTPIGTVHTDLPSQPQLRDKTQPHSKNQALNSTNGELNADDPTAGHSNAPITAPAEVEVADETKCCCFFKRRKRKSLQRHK
Casein kinase I isoform gamma-1 (Homo sapiens), sequence (Q9HCP0 whole entry, looked up, canonical isoform): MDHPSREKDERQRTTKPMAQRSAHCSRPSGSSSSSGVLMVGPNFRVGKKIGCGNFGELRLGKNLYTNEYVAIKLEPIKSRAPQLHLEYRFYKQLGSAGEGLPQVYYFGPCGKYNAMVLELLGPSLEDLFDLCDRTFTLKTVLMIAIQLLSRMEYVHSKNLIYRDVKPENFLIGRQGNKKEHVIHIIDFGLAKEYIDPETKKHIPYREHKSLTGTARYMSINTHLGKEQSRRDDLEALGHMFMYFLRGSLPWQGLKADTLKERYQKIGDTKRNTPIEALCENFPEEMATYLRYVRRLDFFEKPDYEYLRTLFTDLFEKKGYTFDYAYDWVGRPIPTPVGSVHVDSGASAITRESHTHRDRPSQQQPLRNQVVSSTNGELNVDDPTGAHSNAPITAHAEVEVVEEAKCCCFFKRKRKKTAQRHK
Rhodopsin kinase GRK7 (Homo sapiens), sequence (Q8WTQ7 whole entry, looked up): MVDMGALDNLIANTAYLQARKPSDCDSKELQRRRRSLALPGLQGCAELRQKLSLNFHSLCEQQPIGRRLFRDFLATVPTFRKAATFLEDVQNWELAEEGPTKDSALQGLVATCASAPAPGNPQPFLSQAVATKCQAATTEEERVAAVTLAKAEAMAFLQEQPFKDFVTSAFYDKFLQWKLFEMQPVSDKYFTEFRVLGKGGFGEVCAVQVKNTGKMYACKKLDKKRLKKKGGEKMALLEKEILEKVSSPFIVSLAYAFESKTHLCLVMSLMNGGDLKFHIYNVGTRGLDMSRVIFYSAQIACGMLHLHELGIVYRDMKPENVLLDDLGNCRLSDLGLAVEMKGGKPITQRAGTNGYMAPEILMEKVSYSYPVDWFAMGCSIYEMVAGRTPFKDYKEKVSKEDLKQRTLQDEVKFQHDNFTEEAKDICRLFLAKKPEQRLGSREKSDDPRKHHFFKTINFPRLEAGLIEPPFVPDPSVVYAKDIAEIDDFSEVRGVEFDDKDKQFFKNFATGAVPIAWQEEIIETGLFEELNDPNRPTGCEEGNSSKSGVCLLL
Protein kinase C eta type (Homo sapiens), sequence (P24723 whole entry): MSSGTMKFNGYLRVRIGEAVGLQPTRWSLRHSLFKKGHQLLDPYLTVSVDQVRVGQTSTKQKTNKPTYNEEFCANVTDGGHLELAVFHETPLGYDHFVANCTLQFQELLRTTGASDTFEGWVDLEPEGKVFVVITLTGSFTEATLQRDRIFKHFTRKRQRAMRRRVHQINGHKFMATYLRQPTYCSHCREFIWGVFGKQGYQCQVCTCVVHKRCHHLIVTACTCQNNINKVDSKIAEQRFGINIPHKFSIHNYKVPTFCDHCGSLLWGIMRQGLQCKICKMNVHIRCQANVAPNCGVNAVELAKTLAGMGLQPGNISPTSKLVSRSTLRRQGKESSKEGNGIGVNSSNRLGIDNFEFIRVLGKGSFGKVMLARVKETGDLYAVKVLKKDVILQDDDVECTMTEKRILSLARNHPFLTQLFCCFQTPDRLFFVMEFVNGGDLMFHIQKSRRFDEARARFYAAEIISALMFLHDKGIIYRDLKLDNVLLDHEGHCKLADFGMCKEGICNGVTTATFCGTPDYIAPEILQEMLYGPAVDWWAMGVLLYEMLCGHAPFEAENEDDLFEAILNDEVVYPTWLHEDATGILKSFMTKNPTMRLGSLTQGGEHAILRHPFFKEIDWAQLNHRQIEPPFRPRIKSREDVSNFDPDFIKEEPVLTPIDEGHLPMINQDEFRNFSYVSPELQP
RAF proto-oncogene serine/threonine-protein kinase (Homo sapiens), sequence (P04049 whole entry): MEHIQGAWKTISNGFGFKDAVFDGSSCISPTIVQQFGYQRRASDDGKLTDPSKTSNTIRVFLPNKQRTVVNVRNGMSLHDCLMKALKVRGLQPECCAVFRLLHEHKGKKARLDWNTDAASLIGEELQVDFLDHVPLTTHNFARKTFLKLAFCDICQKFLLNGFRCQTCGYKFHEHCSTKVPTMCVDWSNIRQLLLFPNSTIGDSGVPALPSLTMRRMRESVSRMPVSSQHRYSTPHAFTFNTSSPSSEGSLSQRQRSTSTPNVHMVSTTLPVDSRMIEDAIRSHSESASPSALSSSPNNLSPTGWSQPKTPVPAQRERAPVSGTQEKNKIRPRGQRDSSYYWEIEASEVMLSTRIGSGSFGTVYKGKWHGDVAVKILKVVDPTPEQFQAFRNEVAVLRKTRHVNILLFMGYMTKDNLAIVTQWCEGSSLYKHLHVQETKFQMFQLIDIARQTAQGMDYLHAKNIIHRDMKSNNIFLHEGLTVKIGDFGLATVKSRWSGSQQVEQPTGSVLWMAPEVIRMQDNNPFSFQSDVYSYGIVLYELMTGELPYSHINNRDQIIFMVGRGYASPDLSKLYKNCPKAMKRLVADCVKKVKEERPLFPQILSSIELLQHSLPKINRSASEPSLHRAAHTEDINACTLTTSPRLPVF

- inhibition [1]: 0%
- fold change (FC) [2]: 0
- inhibition [3]: 10%
SMILES: CNC(=O)c1ccccc1Oc1nc(Nc2cc(OC)c(OC)c(OC)c2)ncc1Br

- inhibition [4]: 1%
- fold change (FC) [5]: 0
- fold change (FC) [6]: 0.09
SMILES: CC(C)[C@H](NC(=O)c1cc(-c2cnn3cc(-c4ccc(OCCN5CCCCC5)cc4)cnc23)cs1)C(F)(F)F

- inhibition [7]: 0%
- inhibition [8]: 0%
- fold change (FC) [9]: 0
- fold change (FC) [10]: 0
- fold change (FC) [11]: 0
- fold change (FC) [12]: 0
SMILES: O=C(N[C@@H](C1CC1)C(F)(F)F)c1cc(-c2cnn3cc(-c4ccc(F)cc4)cnc23)cs1
